Data reported in patent publication US5496697A, “Methods and apparatus for detecting the effect of cell affecting agents on living cells” (priority 1993, dated 1996).

What was measured:
[1] = target: T1, rat M1 muscarinic receptor (Rattus norvegicus, UniProt P08482); test: metabolic rate of M1C-2 cells (B82 cells transfected with rat M1 muscarinic receptor); details: atropine alone, FIG. 28
T1 sequence (P08482 1-460): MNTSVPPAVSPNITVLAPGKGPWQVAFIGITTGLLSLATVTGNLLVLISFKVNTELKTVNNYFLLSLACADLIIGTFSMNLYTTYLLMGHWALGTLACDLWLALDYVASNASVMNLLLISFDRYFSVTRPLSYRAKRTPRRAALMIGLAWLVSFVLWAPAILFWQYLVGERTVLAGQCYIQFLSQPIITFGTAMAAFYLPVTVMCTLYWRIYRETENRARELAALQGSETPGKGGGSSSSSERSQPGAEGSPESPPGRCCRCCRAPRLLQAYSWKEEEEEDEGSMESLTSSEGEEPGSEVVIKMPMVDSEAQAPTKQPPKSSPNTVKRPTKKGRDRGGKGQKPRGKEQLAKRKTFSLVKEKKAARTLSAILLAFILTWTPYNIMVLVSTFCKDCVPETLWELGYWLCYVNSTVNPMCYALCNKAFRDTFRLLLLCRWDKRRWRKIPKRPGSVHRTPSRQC

MDCK cells = test: metabolic rate of MDCK cells exposed to MgCl; type: cell-based, canine; details: 10 mM MgCl
[2] = tested on: vesicular stomatitis virus (VSV); type: cell-based; details: VSV-infected L cells, FIGS. 36-39
L cells [3] = test: cells; details: Mus musculus, 8 min, read-out: peak metabolic activity
L cells [4] = tested on: L cells
[5] = tested on: normal human keratinocytes; test: metabolic rate of EGF-starved normal human keratinocytes; type: cell-based
Procedure: Normal human keratinocytes require epidermal growth factor (EGF) for proliferation without differentiation. Keratinocytes (from Clonetics, Inc.) were cultured in the absence of EGF for a period of 24 hours prior to the experiment. For the experiment, the keratinocytes were assembled into four flow chambers and the alternating stop-flow sequence was initiated with medium containing no EGF. At the time indicated by the arrow in FIG. 43, the syringes containing medium were changed on all four flow chambers. The second medium contained 5 ng/ml mouse EGF, or 1.25 μg/ml of a neutralizing rabbit anti-mouse-EGF polyclonal IgC, or both. A control with no EGF or IgC was also run. […] Addition of the anti-EGF antibody alone had no effect.
In a separate experiment, the growth medium for the normal human epidermal keratinocytes contained 10 ng/mL murine EGF, a substance found to be mitogenic for keratinocytes. […] It does show the same rising baseline, which probably indicates some combination of cell proliferation and adaptation to the environmental conditions in the flow chamber.
Stimulation of acidification rate was observable down to 0.1 ng/mL EGF. In a control experiment, the stimulation was abolished by a monoclonal antibody to EGF that is known to block receptor binding.

[6] = tested on: mouse and human fibroblasts; details: previously reported; cited from earlier work

Compound: CN1[C@@H]2CC[C@H]1C[C@@H](OC(=O)C(CO)c1ccccc1)C2 (some centres unmarked) [Atropine]
- effect on cells alone [1]: no significant effect

Compound: [Cl-].[Cl-].[Mg+2] [MgCl, magnesium chloride]
- increase in metabolic rate vs. medium only (MDCK cells): 40-46%

Compound: NC(=O)c1ncn([C@@H]2O[C@H](CO)[C@@H](O)[C@H]2O)n1 [ribavirin]
- effect on VSV-induced change of host cell metabolism [2]: inhibition

Compound: CC(C)[C@@H]1NC(=O)[C@H](C)OC(=O)[C@@H](C(C)C)NC(=O)[C@@H](C(C)C)OC(=O)[C@H](C(C)C)NC(=O)[C@H](C)OC(=O)[C@@H](C(C)C)NC(=O)[C@@H](C(C)C)OC(=O)[C@H](C(C)C)NC(=O)[C@H](C)OC(=O)[C@@H](C(C)C)NC(=O)[C@@H](C(C)C)OC1=O [valinomycin]
- fold induction at 100 µM (L cells [3]): ~2.4
- peak metabolic rate relative to the initial rate (L cells [4]): more than double the initial rate
- time of return of metabolic activity approximately to the initial value (L cells [4]): ≤ 20 min
- time to peak of metabolic activity (L cells [4]): four

Compound: EGF: epidermal growth factor (mouse EGF) (NSYPGCPSSYDGYCLNGGVCMHIESLDSYTCNCVIGYSGDRCQTRDLRWWELR; Epidermal growth factor; UniProt P01132 977-1029, looked up)
- metabolic response of keratinocytes to EGF ([5]; 5 ng/ml mouse EGF, FIG. 43): metabolic burst
- metabolic rate at the peak ([5]; 50 ng/mL EGF, FIG. 44): nearly doubled
- time from peak to decay to a steadily rising baseline ([5]; 50 ng/mL EGF, FIG. 44): 15 min
- time to peak of response ([5]; 50 ng/mL EGF, FIG. 44): ~ 15 min
- time to rise in metabolic rate ([5]; 50 ng/mL EGF, FIG. 44): ≤ 5 min
- lowest concentration with observable stimulation of acidification rate ([5]; EGF): 0.1 ng/mL
- effect on glycolytic rate [6]: rapid increase in glycolytic rate
